For assay [1], the target named is T1, cloned human glucagon receptor (Homo sapiens, UniProt P47871).
T1 construct: expressed in transfected cells; plasma membrane preparation
Put plainly: Glucagon Binding Assay (I). The following applies: for IC50: plasma membranes of BHK cells expressing the receptor, 125I-glucagon tracer, read-out: Glu Bd Assay (I) IC50. The method, then:
Binding of compounds to the glucagon receptor was determined in a competition binding assay using the cloned human glucagon receptor.
Receptor binding was assayed using cloned human receptor (Lok et al., Gene 140, 203-209 (1994)). The receptor inserted in the pLJ6′ expression vector using EcoRI/SSt1 restriction sites (Lok et al.) was expressed in a baby hamster kidney cell line (A3 BHK 570-25).
Plasma membranes were prepared by growing cells to confluence, detaching them from the surface and resuspending the cells in cold buffer (10 mM tris/HCl, pH 7.4 containing 30 mM NaCl, 1 mM dithiothreitol, 5 mg/L leupeptin (Sigma), 5 mg/L pepstatin (Sigma), 100 mg/L bacitracin (Sigma) and 15 mg/L recombinant aprotinin (Novo Nordisk A/S)), homogenization by two 10-s bursts using a Polytron PT 10-35 homogenizer (Kinematica), and centrifugation upon a layer of 41 w/v % sucrose at 95.000×g for 75 min. The white band located between the two layers was diluted in buffer and centrifuged at 40.000×g for 45 min. The precipitate containing the plasma membranes was suspended in buffer and stored at −80° C. until use. Glucagon was iodinated according to the chloramine T method (Hunter and Greenwood, Nature 194, 495 (1962)) and purified using anion exchange chromatography (Jørgensen et al., Hormone and Metab. Res. 4, 223-224 (1972). The specific activity was 460 μCi/μg on the day of iodination. Tracer was stored at −18° C. in aliquots and were used immediately after thawing.
Binding assays were carried out in triplicate in filter microtiter plates (MADV N65, Millipore). The buffer used in this assay was 50 mM HEPES, 5 mM EGTA, 5 mM MgCl2, 0.005% tween 20, pH 7.4. Glucagon was dissolved in 0.05 M HCl, added an equal amount (w/w) of HSA and freeze-dried. On the day of use, it was dissolved in water and diluted in buffer to the desired concentrations.
Test compounds were dissolved and diluted in DMSO. 140 μL buffer, 25 μL glucagon or buffer, and 10 μL DMSO or test compound were added to each well. Tracer (50.000 cpm) was diluted in buffer and 25 μL were added to each well. 1-4 μg freshly thawed plasma membrane protein diluted in buffer was then added in aliquots of 25 μL to each well. Plates were incubated at 30° C. for 2 hours. Non-specific binding was determined with 10^−6 M of glucagon. Bound tracer and unbound tracer were then separated by vacuum filtration (Millipore vacuum manifold). The plates were washed with 2×100 μL buffer/well. The plates were air dried for a couple of hours, whereupon the filters were separated from the plates using a Millipore Puncher. The filters were counted in a gamma counter.

Another assay deals with T2, human glucagon receptor (Homo sapiens, UniProt P47871).
T2 construct: expressed in transfected cells; host or cells: BHK (baby hamster kidney) cells
T2 sequence (P47871 26-477): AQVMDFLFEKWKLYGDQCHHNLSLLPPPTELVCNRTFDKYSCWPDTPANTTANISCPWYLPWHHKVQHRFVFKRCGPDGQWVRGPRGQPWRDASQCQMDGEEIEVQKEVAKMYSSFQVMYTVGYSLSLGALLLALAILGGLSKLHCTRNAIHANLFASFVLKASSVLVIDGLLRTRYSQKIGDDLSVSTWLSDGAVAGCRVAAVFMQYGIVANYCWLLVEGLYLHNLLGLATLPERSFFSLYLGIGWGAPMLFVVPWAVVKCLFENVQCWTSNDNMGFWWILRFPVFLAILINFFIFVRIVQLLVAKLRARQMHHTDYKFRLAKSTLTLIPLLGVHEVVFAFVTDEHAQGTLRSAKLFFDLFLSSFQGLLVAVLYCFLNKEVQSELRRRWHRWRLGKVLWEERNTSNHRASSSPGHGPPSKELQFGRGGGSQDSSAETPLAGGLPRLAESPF
As to the kind of experiment: Glucagon Binding Assay (III). The following applies: BHK cell membranes, WGA SPA beads, 125I-glucagon; read-out: Glu Bd Assay (III) IC50. In outline: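 Membranes from BHK cells transfected with the human receptor, prepared at 4 °C, were used in a WGA-bead scintillation proximity binding format. Plates were shaken for 4 hours, left to settle 8–48 hours and then counted. Non-specific binding was defined with 500 nM glucagon.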

Assay [2] has as its target T1, cloned human glucagon receptor. As to the kind of experiment: Glucagon Binding Assay (II).
[3] abbreviates: plasma membranes of BHK cells expressing the receptor, read-out: Glu Bd Assay (II) IC50.

What is called IC50 is the concentration needed to halve the response being measured.

T1 sequence (P47871 26-477): as above

`O=C(O)CCNC(=O)c1ccc(CN(C(=O)Nc2ccc(OC(F)(F)F)cc2)C2CCCCC2)cc1`: the IC50 in assay [1] was found to be 2700 nM.

Regarding `COC(C)(C)C1CCC(N(Cc2ccc(C(=O)NCCC(=O)O)cc2)C(=O)Nc2ccc(OC(F)(F)F)cc2)CC1` (stereo not drawn), the IC50 in assay [1] came to 1280 nM.

For `O=C(O)CCNC(=O)c1ccc(CN(C(=O)Nc2cc(Cl)cc(Cl)c2)C2CCC3(CC2)SCCS3)cc1`, in assay [1], the IC50 was 1340 nM.

In the case of `O=C(O)CCNC(=O)c1ccc(CN(CC(c2ccccc2)c2ccccc2)C(=O)c2csc3ccc(Cl)cc23)cc1` [Example 1, 3-(4-{[N-(5-Chlorobenzo[b]thiophen-3-carbonyl)-N-(2,2-diphenylethyl)amino]methyl}benzoylamino)propionic acid], in assay [1], the IC50 was found to be 120 nM.

With `O=C(O)CCNC(=O)c1ccc(CN(CCc2ccc(Cl)c(Cl)c2)C(=O)c2csc3ccc(Cl)cc23)cc1` [Example 2, 3-(4-{[N-(5-Chlorobenzo[b]thiophen-3-carbonyl)-N-(3,4-dichlorophenylethyl)amino]methyl}benzoylamino)propionic acid], the IC50 in assay [1] was 1300 nM.

For `CC(C)(C)C1CCC(N(Cc2ccc(C(=O)NCCC(=O)O)cc2)C(=O)Cc2csc3ccccc23)CC1` (stereo not drawn) [Example 3, 3-(4-{[N-(2-Benzo[b]thiophen-3-yl-acetyl)-N-(4-tert-butylcyclohexyl)amino]methyl}benzoylamino)propionic acid], in assay [1], the “Glu Bd Assay (I) Effect, 100-Residual binding (%) at 1 μM” value is given as 26.2%.

On to `CC(C)(C)C1CCC(N(Cc2ccc(C(=O)NCCC(=O)O)cc2)C(=O)c2cc3ccccc3s2)CC1` (stereo not drawn) [Example 4, 3-(4-{[N-(Benzo[b]thiophen-2-carbonyl)-N-(4-tert-butylcyclohexyl)amino]methyl}benzoylamino)propionic acid], for which, in assay [1], the “Glu Bd Assay (I) Effect, 100-Residual binding (%) at 1 μM” value came out at 28.5%.

Turning to `CCCCC(CC)CN(Cc1ccc(C(=O)NCCC(=O)O)cc1)C(=O)/C=C/c1c(Cl)cccc1Cl` (stereo not drawn) [Example 5, 3-(4-{[N-[3-(2,6-Dichlorophenyl)acryloyl]-N-(2-ethylhexyl)amino]methyl}benzoylamino)propionic acid], in assay [1], the “Glu Bd Assay (I) Effect, 100-Residual binding (%) at 1 μM” value is recorded as 31.1% and the IC50 is 800 nM.

On to `CC(C)(C)c1ccc(CN(Cc2ccc(C(=O)NCCC(=O)O)cc2)C(=O)/C=C/c2c(Cl)cccc2Cl)cc1` [Example 6, 3-(4-{[N-[3-(2,6-Dichlorophenyl)acryloyl]-N-(4-tert-butylbenzyl)amino]methyl}benzoylamino)propionic acid], for which, in assay [1], the “Glu Bd Assay (I) Effect, 100-Residual binding (%) at 1 μM” value is listed as 29.5% and the IC50 was determined as 1200 nM.

For `CC(C)(C)c1ccc(CN(Cc2ccc(C(=O)NCCC(=O)O)cc2)C(=O)c2cc3ccccc3s2)cc1` [Example 7, 3-(4-{[N-(Benzo[b]thiophen-2-carbonyl)-N-(4-tert-butylbenzyl)amino]methyl}benzoylamino)propionic acid], in assay [1], the “Glu Bd Assay (I) Effect, 100-Residual binding (%) at 1 μM” value came to 30.4% and the IC50 was determined as 845 nM.

On to `O=C(O)CCNC(=O)c1ccc(CN(CCC(c2ccccc2)c2ccccc2)C(=O)c2ccc(Cl)cc2)cc1` [Example 8, 3-(4-{[N-(4-Chlorobenzoyl)-N-(3,3-diphenylpropyl)amino]methyl}benzoylamino)propionic acid], for which, in assay [1], the “Glu Bd Assay (I) Effect, 100-Residual binding (%) at 1 μM” value was found to be 37.8% and the IC50 amounted to 675 nM.

In the case of `O=C(O)CCNC(=O)c1cccc(CN(CC(c2ccccc2)c2ccccc2)C(=O)c2csc3ccc(Cl)cc23)c1` [Example 9, 3-(3-{[N-(5-Chlorobenzo[b]thiophene-3-carbonyl)-N-(2,2-diphenylethyl)amino]methyl}benzoylamino)propionic acid], the “Glu Bd Assay (I) Effect, 100-Residual binding (%)” value in assay [1] (at 500 nM) is 56.4% (at 500.

In the case of `CCCCC(CC)CN(Cc1ccc(C(=O)NCCC(=O)O)cc1)C(=O)Nc1ccc(-c2ccccc2)cc1` (stereo not drawn) [Example 10, 3-{4-[3-Biphenyl-4-yl-1-(2-ethylhexyl)ureidomethyl]benzoylamino}propionic acid], the IC50 in assay [1] is 42 nM.

For the compound `CC(C)(C)C1CCC(N(Cc2ccc(C(=O)NCCC(=O)O)cc2)C(=O)Nc2ccc(OC(F)(F)F)cc2)CC1` (stereo not drawn) [Example 11, 3-{4-[1-(4-tert-Butylcyclohexyl)-3-(4-trifluoromethoxyphenyl)ureidomethyl]benzoylamino}propionic acid], in assay [1], the IC50 stood at 27 nM.

Turning to `CC(C)(C)C1CCC(N(Cc2ccc(C(=O)NCCC(=O)O)cc2)C(=O)Nc2ccc(-c3ccccc3)cc2)CC1` (stereo not drawn) [Example 12, 3-{4-[3-Biphenyl-4-yl-1-(4-tert-butylcyclohexyl)ureidomethyl]benzoylamino}propionic acid], the IC50 in assay [1] was 20 nM.

As for `CC(C)(C)C1CCC(N(Cc2ccc(C(=O)NCCC(=O)O)cc2)C(=O)Nc2cccc(C(F)(F)F)c2)CC1` (stereo not drawn) [Example 13, 3-{4-[1-(4-tert-Butylcyclohexyl)-3-(3-trifluoromethylphenyl)ureidomethyl]benzoylamino}propionic acid], the IC50 in assay [1] was 78 nM.

In the case of `O=C(O)CCNC(=O)c1ccc(CN(C(=O)Nc2ccc(OC(F)(F)F)cc2)c2ccc(C3CCCCC3)cc2)cc1` [Example 179, 3-{4-[1-(4-Cyclohexylphenyl)-3-(4-trifluoromethoxyphenyl)ureidomethyl]benzoylamino}propionic acid], the values for the IC50 (at human glucagon receptor; in assay [2] (setting [3])) were 51 nM and 33 nM, respectively.

With `O=C(O)CCNC(=O)c1ccc(CN(C(=O)Nc2cc(Cl)cc(Cl)c2)c2ccc(C3CCCCC3)cc2)cc1` [Example 232, 3-{4-[1-(4-Cyclohexylphenyl)-3-(3,5-dichlorophenyl)ureidomethyl]benzoylamino}propionic acid], the IC50 was 30 nM at human glucagon receptor and 17 nM in assay [2] (setting [3]).

Consider `O=C(Nc1nn[nH]n1)c1ccc(CN(C(=O)Nc2ccc(Cl)c(C(F)(F)F)c2)c2ccc(C3CCCCC3)cc2)cc1` [Example 282, 4-[3-(4-Chloro-3-trifluoromethylphenyl)-1-(4-cyclohexylphenyl)ureidomethyl]-N-(2H-tetrazol-5-yl)benzamide], for which the IC50 at human glucagon receptor came out at 21 nM; in assay [2] (setting [3]), 3 nM.

Consider `CC(C)(C)C1CCC(N(Cc2ccc(C(=O)Nc3nn[nH]n3)cc2)C(=O)C=Cc2c(Cl)cccc2Cl)CC1` (stereo not drawn) [Example 477, 4-({(4-tert-Butylcyclohexyl)-[3-(2,6-dichlorophenyl)acryloyl]amino}methyl)-N-(2H-tetrazol-5-yl)benzamide], for which the IC50 at human glucagon receptor was determined as 464 nM; in assay [2] (setting [3]), 224 nM.

Regarding `CC(C)(C)C1CCC(N(Cc2ccc(C(=O)NCCC(=O)O)cn2)C(=O)Nc2ccc(OC(F)(F)F)cc2)CC1` (stereo not drawn) [Example 612, 3-({6-[1-(4-tert-Butylcyclohexyl)-3-(4-trifluoromethoxyphenyl)ureidomethyl]pyridine-3-carbonyl}amino)propionic acid], the IC50 in assay [2] (setting [3]) turned out to be 161 nM.

Turning to `CC(C)(C)[C@H]1CC[C@H](N(Cc2ccc(C(=O)NCCC(=O)O)cc2)Cc2cccc(S(C)(=O)=O)c2)CC1` [Example 613, 3-(4-{[(trans-4-tert-Butylcyclohexyl)-(3-methylsulfonylbenzyl)amino]methyl}benzoylamino)propionic acid], the IC50 in assay [2] (setting [3]) worked out at 578 nM.

Take `CC(C)(C)C1CCC(N(Cc2ccc(C(=O)NCCC(=O)O)cc2)C(=O)Nc2ccc(Oc3ccccc3)cc2)CC1` (stereo not drawn) [drawing 1168]: in assay [2] (setting [3]), the IC50 is 121 nM.

`CC(C)(C)C1CCC(N(Cc2ccc(C(=O)NCCC(=O)O)cc2)C(=O)Nc2ccc(Cl)c(Cl)c2)CC1` (stereo not drawn) [drawing 1169] displayed an IC50 in assay [2] of 226 nM.

In assay [2], `CC(C)c1ccc(NC(=O)N(Cc2ccc(C(=O)NCCC(=O)O)cc2)C2CCC(C(C)(C)C)CC2)cc1` (stereo not drawn) [drawing 1170] returned an IC50 of 35 nM.

With `CC(C)(C)C1CCC(N(Cc2ccc(C(=O)NCCC(=O)O)cc2)NC(=O)c2ccc(OC(F)(F)F)cc2)CC1` (stereo not drawn) [drawing 1171], in assay [2] (setting [3]), the IC50 amounted to 108 nM.

On to `O=C(O)CCNC(=O)c1ccc(CN(C(=O)Nc2ccc(OC(F)(F)F)cc2)C2CCC3CCCCC3C2)cc1` (stereo not drawn) [drawing 1173], for which, in assay [2] (setting [3]), the IC50 is 426 nM.

For the compound `CCCCc1ccc(N(Cc2ccc(C(=O)NCCC(=O)O)cc2)C(=O)Nc2ccc(OC(F)(F)F)cc2)cc1` [drawing 1186], the IC50 in assay [2] (setting [3]) was found to be 13 nM.
